Measurements: PubChem BioAssay (NCI)
Several values for one entry are separate records, joined by “and”; a condition that tells them apart may be missing. Identical values can stand only once.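 Step 1: Grow cells in 96-well plates. Step 2: Expose to compound for 48 hours at 5 concentrations. Step 3: Interpolate endpoints linearly; if unreached, use highest concentration. Abbreviation: GI50, concentration required for 50% inhibition of growth. TGI is the concentration that stops growth completely.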

Experiments:
Experiment in all cases: NCI tumour cell line growth inhibition, 48 h
[1] = test system: 786-0 renal
[2] = test system: SNB-75 CNS
[3] = test system: MDA-MB-435
[4] = test system: RXF 393 renal
[5] = test system: HCT-116 colon
[6] = test system: PC-3 prostate
[7] = test system: OVCAR-8 ovarian
[8] = test system: NCI/ADR-RES ovarian
[9] = test system: COLO 205 colon
[10] = test system: MDA-N

Row | Compound | TGI [1] [µM] | TGI [2] | TGI [3] | TGI [4] | TGI [5] | TGI [6] [µM] | TGI [7] | TGI [8] | TGI [9] | TGI [10] | GI50 [3] | GI50 [4] | GI50 [7] | GI50 [8] | GI50 [9] | GI50 [10]
1 | Cc1cc2occ(S(=O)(=O)NC(=O)Nc3ccc(Cl)cc3)c(=O)c2c(=O)o1 | > 100 | > 100 µM | > 100 µM | > 100 µM | > 100 µM | > 100 | > 100 µM | > 100 µM | > 100 µM | > 100 µM |  |  |  |  |  | 
2 | COC(=O)[C@@H]1COC(=O)N1 | > 100 | > 100 µM | > 100 µM | > 100 µM | > 100 µM | > 100 | > 100 µM | > 100 µM | > 100 µM | > 100 µM |  |  |  |  |  | 
3 | c1ccc(-c2c(-c3[nH]c4ccccc4c3-c3ccccc3)[nH]c3ccccc23)cc1 | 4.08 | 14.9 µM | 14.9 µM | 3.72 µM | 13.4 µM | 10.6 | 15.6 µM | 13.3 µM | 3.53 µM | 7.46 µM |  |  |  |  |  | 
4 | CC(=O)N1c2cc(N=NN(C)C)ccc2NC(=O)CC1C (stereo unspecified) | > 100 | > 100 µM | > 100 µM | > 100 µM | > 100 µM | > 100 | > 100 µM | > 100 µM | > 100 µM | > 100 µM |  |  |  |  |  | 
5 | O=C1C=C/C(=C/[C@H]2SSC=C[C@]23C=CC(=O)C3)C1 | 28.7 | > 100 µM | > 53.1 µM | 29.9 µM | 22 µM | > 84.9 | > 81 µM | 68.1 µM | 53 µM | 51.3 µM |  |  |  |  |  | 
6 | O=C(NCc1ccccc1Cl)c1c(O)c2ccccc2[nH]c1=O | 36.5 | 52.2 µM | > 100 µM | 63.1 µM | > 100 µM | > 100 | > 100 µM | 56.6 µM | > 100 µM | > 100 µM |  |  |  |  |  | 
7 | O=C1c2ccccc2C(=O)c2sc(Nc3cc(Cl)ccc3Cl)nc21 | 22.6 | 38.2 µM | 3.85 µM | 39.3 µM | 13.7 µM | 18.5 | 14.2 µM | 7.31 µM | 34 µM | 3.41 µM |  |  |  |  |  | 
8 | S=c1[nH]n2c(COc3cc(Cl)c(OCc4nnc5sc(=S)[nH]n45)cc3Cl)nnc2s1 | > 100 | > 100 µM | > 100 µM | > 100 µM | > 100 µM | > 100 | > 100 µM | > 100 µM | > 100 µM | > 100 µM |  |  |  |  |  | 
9 | C=CCOC(=O)N1c2ccc(O)cc2[C@@]23O[C@@]24[C@@H]1C#C/C=C\C#C[C@]3(O)C(=O)C[C@@H]4C | > 100 | > 100 µM | > 100 µM | > 100 µM | > 100 µM | > 100 | > 100 µM | > 100 µM | > 100 µM | > 100 µM |  |  |  |  |  | 
10 | CCOC(=O)c1cc2c3c(cc(OC)c2[nH]1)N(C(=O)OCC)CC3 | > 100 | > 100 µM | > 100 µM | > 100 µM | > 100 µM | > 100 | > 100 µM | > 100 µM | > 100 µM | > 100 µM |  |  |  |  |  | 
11 | Cc1cc(=O)n2nc(CSc3nnc(Sc4cc(O)ccc4O)s3)sc2n1 | > 100 | > 100 µM | 32.7 µM | > 100 µM | 41.2 µM | > 100 | > 100 µM | > 100 µM | > 100 µM | 32.8 µM |  |  |  |  |  | 
12 | CC(NNC(=O)c1ccncc1)c1ccc(Cl)cc1Cl (stereo unspecified) | > 100 | > 100 µM | > 100 µM | > 100 µM | > 100 µM | > 100 | > 100 µM | > 100 µM | > 100 µM | > 100 µM |  |  |  |  |  | 
13 | CC(C)(CN1CCCCC1)C(=O)CC(SCCS(=O)(=O)O)c1ccc(Cl)cc1 (stereo unspecified) | 8.91 | 15.1 µM | 10.6 µM | 9.92 µM | 13.6 µM | 18.1 | 11.1 µM | 34 µM | 8.94 µM | 9.57 µM |  |  |  |  |  | 
14 | Clc1cc2ncn(C3CCCCO3)c2cc1Cl (stereo unspecified) | > 100 | 53.9 µM | > 100 µM | > 100 µM | > 100 µM | > 100 | > 100 µM | > 100 µM | > 100 µM | > 100 µM |  |  |  |  |  | 
15 | Cc1nc(Cc2n[nH]c(C)n2)n[nH]1 | > 100 | > 100 µM | > 100 µM | > 100 µM | > 100 µM | > 100 | > 100 µM | > 100 µM | > 100 µM | > 100 µM |  |  |  |  |  | 
16 | COc1ccc(/C=N/NC(=S)Nc2cc(C)ccc2OC)cc1 | 70.9 | > 100 µM | > 100 µM | > 100 µM | > 100 µM | > 100 | > 100 µM | > 100 µM | 32.7 µM | 70.7 µM |  |  |  |  |  | 
17 | COc1cccc(N=NN2CCCC2)c1 | > 100 | > 100 µM | > 100 µM | > 100 µM | > 100 µM | > 100 | > 100 µM | > 100 µM | > 100 µM | > 100 µM |  |  |  |  |  | 
18 | CCc1cc2c(c3c1CCCC3=O)CC1(C2)Cc2cc(CC)c3c(c2C1)C(=O)CCC3 | > 100 | > 100 µM | > 100 µM | > 100 µM | > 100 µM | > 100 | > 100 µM | > 100 µM | > 100 µM | > 100 µM |  |  |  |  |  | 
19 | CC[C@@]1(O)C(=O)OCc2c1cc1n(c2=O)Cc2c-1nc1ccccc1c2C=Nc1ccccc1N[C@@H]1c2cc3c(cc2[C@@H](c2cc(OC)c(O)c(OC)c2)[C@H]2C(=O)OC[C@@H]21)OCO3 | 0.339 | 5.48 µM and 0.647 µM | 24.3 µM and > 50 µM | 5.02 µM and 0.54 µM | 4.48 µM and 2.5 µM | > 65.8 | 2.15 µM and 4.12 µM | 2.88 µM and 2.78 µM | 24.8 µM and > 10.6 µM | 28 µM and 3.12 µM | 0.358 µM and 0.45 µM | 0.317 µM and 0.0619 µM | 0.0551 µM and 0.28 µM | 0.0689 µM and 0.24 µM | 8.86 µM and 0.929 µM | 0.616 µM and 0.183 µM
20 | CSc1nc(C)c2c(n1)N(c1ccc(Cl)cc1)CC2 | > 100 | 38.8 µM | > 100 µM | > 100 µM | > 100 µM | > 100 | > 100 µM | > 100 µM | > 100 µM | > 100 µM |  |  |  |  |  | 
21 | CC(=O)C(C(C)=O)[C@H]1OC(C)(C)O[C@H]1[C@H]1COC(C)(C)O1 | > 100 | > 100 µM | > 100 µM | > 100 µM | > 100 µM | 68.9 | > 100 µM | > 100 µM | 32.5 µM | > 100 µM |  |  |  |  |  | 
22 | COc1ccc(/C=N/Nc2nnc3c(n2)c2ccccc2c2nn(-c4ccccc4Cl)nc23)cc1 | > 100 | > 100 µM | > 100 µM | > 100 µM | > 100 µM | > 100 | > 100 µM | > 100 µM | > 100 µM | > 100 µM |  |  |  |  |  | 
23 | COC(=O)c1ccccc1C1CN=NC12Cc1c(C)ccc(C)c1C2=O (stereo unspecified) | > 100 | > 100 µM | > 100 µM | > 100 µM | > 100 µM | > 100 | > 100 µM | > 100 µM | > 100 µM | > 100 µM |  |  |  |  |  | 
24 | CCC1CN2CCc3c([nH]c4ccccc34)[C@@](C(=O)OC)(c3cc4c(cc3OC)N(C)C3C(O)(C(=O)OC)C(C(=O)OC)C5(CC)C=CCN6CCC43C65)C[C@@H](C2)[C@@H]1C(C)(C)C (stereo partly specified) | 7.16 | > 10 µM | 0.462 µM | > 10 µM | 2.85 µM | 3.26 | > 3.79 µM | > 7.23 µM | > 6.1 µM | 0.424 µM |  |  |  |  |  | 
25 | COc1ccc(/C(CC2OC(=O)c3ccccc32)=N\NC(N)=O)cc1 (stereo unspecified) | > 100 | > 100 µM | > 100 µM | > 100 µM | > 100 µM | > 100 | > 100 µM | > 100 µM | > 100 µM | > 100 µM |  |  |  |  |  | 
26 | Cc1cc(C)nc(NS(=O)(=O)c2ccc(Nc3c4ccccc4nc4ccc(C(=O)Nc5ccc(S(=O)(=O)N=C(N)N)cc5)cc34)cc2)n1 | 53 | > 100 µM | > 100 µM | > 100 µM | > 100 µM | > 100 | > 100 µM | > 100 µM | > 100 µM | > 100 µM |  |  |  |  |  | 
27 | COc1ccc2c(c1)CC[C@@H]1C2CC[C@]2(C)C(=C=CP(=O)(O)O)CCC12 (stereo partly specified) | > 100 | > 100 µM | > 100 µM | > 100 µM | > 100 µM | > 100 | > 100 µM | > 100 µM | > 100 µM | > 100 µM |  |  |  |  |  | 
